`COC1=CC(=O)C[C@@H](C)[C@]12Oc1c(Cl)c(OC)cc(OC)c1C2=O` showed a solubility (mole fraction) (in 1,2-dichloroethane, 290.05 K) of 0.0197, a solubility (mole fraction) (in 1,2-dichloroethane, 294.3 K) of 0.0209 and a solubility (mole fraction) (in 1,2-dichloroethane, 300.25 K) of 0.0222. For the same compound, the solubility (mole fraction) (in 1,2-dichloroethane, 305.55 K) was 0.0236, the solubility (mole fraction) (in 1,2-dichloroethane, 310.05 K) was 0.0251 and the solubility (mole fraction) (in 1,2-dichloroethane, 315.65 K) was 0.0268. It also gave a solubility (mole fraction) (in 1,2-dichloroethane, 319.35 K) of 0.0289, a solubility (mole fraction) (in 1,2-dichloroethane, 324.05 K) of 0.0311 and a solubility (mole fraction) (in 1,2-dichloroethane, 329.65 K) of 0.0335. For the same compound, the solubility (mole fraction) (in 2-butanone, 289.65 K) was 0.00826, the solubility (mole fraction) (in 2-butanone, 296.95 K) was 0.00941 and the solubility (mole fraction) (in 2-butanone, 302.95 K) was 0.0103. For the same compound, the solubility (mole fraction) (in 2-butanone, 308.25 K) was 0.0117, the solubility (mole fraction) (in 2-butanone, 315.05 K) was 0.0128 and the solubility (mole fraction) (in 2-butanone, 320.4 K) was 0.0141. For the same compound, the solubility (mole fraction) (in 2-butanone, 325.45 K) was 0.0151, the solubility (mole fraction) (in 2-butanone, 330.35 K) was 0.0163 and the solubility (mole fraction) (in DMAc, 296.2 K) was 0.0252. It also gave a solubility (mole fraction) (in DMAc, 301.25 K) of 0.0276, a solubility (mole fraction) (in DMAc, 305.75 K) of 0.0303 and a solubility (mole fraction) (in DMAc, 310.75 K) of 0.0326. The solubility (mole fraction) (in DMAc, 314.95 K) was 0.0344, the solubility (mole fraction) (in DMAc, 319.25 K) was 0.0369 and the solubility (mole fraction) (in DMAc, 324.75 K) was 0.0395. It also gave a solubility (mole fraction) (in DMAc, 330.05 K) of 0.0422, a solubility (mole fraction) (in DMAc, 336.15 K) of 0.0452 and a solubility (mole fraction) (in DMAc, 340.25 K) of 0.0488. The solubility (mole fraction) (in DMAc, 345.75 K) was 0.0518, the solubility (mole fraction) (in DMAc, 350.55 K) was 0.0549 and the solubility (mole fraction) (in DMAc, 354.78 K) was 0.0582. For the same compound, the solubility (mole fraction) (in DMSO, 296.75 K) was 0.0167, the solubility (mole fraction) (in DMSO, 301.15 K) was 0.0186 and the solubility (mole fraction) (in DMSO, 306.15 K) was 0.0204. For the same compound, the solubility (mole fraction) (in DMSO, 310.85 K) was 0.0218, the solubility (mole fraction) (in DMSO, 315.55 K) was 0.0239 and the solubility (mole fraction) (in DMSO, 320.55 K) was 0.026. For the same compound, the solubility (mole fraction) (in DMSO, 326.55 K) was 0.0282, the solubility (mole fraction) (in DMSO, 331.95 K) was 0.0302 and the solubility (mole fraction) (in DMSO, 336.75 K) was 0.0324. It also gave a solubility (mole fraction) (in DMSO, 341.05 K) of 0.0345, a solubility (mole fraction) (in DMSO, 346.25 K) of 0.0368 and a solubility (mole fraction) (in DMSO, 351.7 K) of 0.0393. It also gave a solubility (mole fraction) (in DMSO, 357.6 K) of 0.0415, a solubility (mole fraction) (in NMP, 295.55 K) of 0.0421 and a solubility (mole fraction) (in NMP, 300.65 K) of 0.0451. For the same compound, the solubility (mole fraction) (in NMP, 305.75 K) was 0.048, the solubility (mole fraction) (in NMP, 310 K) was 0.0511 and the solubility (mole fraction) (in NMP, 315.1 K) was 0.0541. The solubility (mole fraction) (in NMP, 320.6 K) was 0.057, the solubility (mole fraction) (in NMP, 325.45 K) was 0.0601 and the solubility (mole fraction) (in NMP, 330.45 K) was 0.0631. The solubility (mole fraction) (in NMP, 335.55 K) was 0.0666, the solubility (mole fraction) (in NMP, 340.35 K) was 0.0704 and the solubility (mole fraction) (in NMP, 345.55 K) was 0.0758. The solubility (mole fraction) (in NMP, 350.35 K) was 0.0795, the solubility (mole fraction) (in NMP, 355.65 K) was 0.083 and the solubility (mole fraction) (in acetone, 281.95 K) was 0.00648. It also gave a solubility (mole fraction) (in acetone, 286.4 K) of 0.0071, a solubility (mole fraction) (in acetone, 291.85 K) of 0.00776 and a solubility (mole fraction) (in acetone, 296.4 K) of 0.00853. For the same compound, the solubility (mole fraction) (in acetone, 300.8 K) was 0.00941, the solubility (mole fraction) (in acetone, 305.05 K) was 0.0102 and the solubility (mole fraction) (in acetone, 310.25 K) was 0.0117. It also gave a solubility (mole fraction) (in acetone, 313.65 K) of 0.0129 and a solubility (mole fraction) (in acetone, 317.05 K) of 0.0143.

— BigSolDB 2.1
